According to patent publication US20240190868A1, “SOS1 INHIBITORS” (Acerand Therapeutics (USA) Limited, priority 2022, published 2024):
Where a name gives a salt, the structure may show the parent alone.

tested on: cellular pERK in NCI-H1975 cells (EGFR/L858R-T790M); experiment: pERK potency assay (In Cell ELISA); type: cell-based; settings: Homo sapiens, 1 h compound incubation
Source text: The assay measures the ability of a compound to inhibit SOS1 function in cells. SOS1 activates RAS proteins by catalyzing the conversion of RAS GDP to RAS GTP in response to receptor tyrosine kinase activation. Activation of RAS induces a sequence of cellular signaling events that result in increased phosphorylation of ERK at Threonine 202 and Tyrosine 204 (pERK). The procedure (i.e., In Cell ELISA as described below) measures the level of cellular pERK in response to a test compound in NCI-H1975 cells (EGFR/L858R-T790M).
First, NCI-H1975 cells were grown and maintained using media and procedures recommended by the ATCC. A day before compound addition, cells were plated in poly-D-lysine coated 96-well cell culture plates (Corning® BioCoat® Cat #356640) at 25000 cells/well/100 μL and grown overnight in an incubator at 37° C. with 5% CO2. A solution of a test compound was prepared with 3-fold serial dilutions in DMSO having a top concentration of 6 mM. On the day of the assay, 50 μL of a test compound dilution in media was added to each well of cell culture plate with a final compound concentration in the range of 0.001 μM to 20 μM. After addition of the compound, cells were incubated for 1 h at 37° C. with 5% CO2, after which the culture medium was removed. Cells were fixed with 4% formaldehyde in phosphate-buffered saline (PBS) and incubated at RT for 20 min. The plate was washed three times with PBST (PBS with 0.05% Tween®-20), followed by incubation with 100 μL of pre-cooled methanol at −20° C. for 20 min. After incubation, methanol was removed. The plate was again washed with PBST. Cells were then permeabilized with 100 μL/well of 0.1% Triton X-100 in PBS at RT for 20 min and then quenched with a quenching buffer (PBST containing 1% H2O2 and 0.1% sodium azide) for 20 min at RT with gentle shaking. After washing once with PBST, a blocking buffer (250 uL/well, Pierce™ Protein-Free-PBS Blocking Buffer, Cat #37572) was then added to the cells for 1-h incubation at RT, followed by an anti-pERK antibody (cell signaling, 1:1000 dilution in 5% BSA in PBST) incubation overnight at 4° C. and a secondary antibody-HRP (Jackson immunoresearch, 1:3000 dilution in 5% BSA in PBST) incubation at RT for 1 h. PBST wash was carried out after each step three times. Before the addition of a substrate (Advansta ELISABright™), the plate was washed with PBS twice to remove detergent residues. The Cellular pERK level was determined using the microplate reader (Biotek Synergy™ H1) to detect the chemiluminescence signal. IC50 was determined by fitting a 4-parameter sigmoidal concentration-response model.

Row | IC50 | Compound
1 | < 100 nM | Cc1n/c(=N\[C@H](C)c2cccc(C(F)F)c2F)c2cc(C3(C(F)F)CC3)ncc2n1C [Compound 94, (R,Z)—N-(1-(3-(difluoromethyl)-2-fluorophenyl)ethyl)-6-(1-(difluoromethyl)cyclopropyl)-1,2-dimethylpyrido[3,4-d]pyrimidin-4(1H)-imine]
2 | < 100 nM | CC(=O)N1CCC(F)(c2cc3/c(=N/[C@H](C)c4cccc(C(F)(F)F)c4C)ncn(C)c3cn2)CC1 [Compound 15, (R,Z)-1-(4-fluoro-4-(1-methyl-4-((1-(2-methyl-3-(trifluoromethyl)phenyl)-ethyl)imino)-1,4-dihydropyrido[3,4-d]pyrimidin-6-yl)piperidin-1-yl)ethan-1-one hydrochloride]
3 | < 100 nM | Cc1c(C#N)cccc1[C@@H](C)/N=c1\nc(C)n(C)c2ccc(C3=CCOCC3)cc12 [Compound 38]
4 | < 100 nM | CC(=O)N1CCC(O)(c2cc3/c(=N/[C@H](C)c4cccc(C(F)F)c4F)nc(C)n(C)c3cn2)CC1 [Compound 5, (R,Z)-1-(4-(4-((1-(3-(difluoromethyl)-2-fluorophenyl)ethyl)imino)-1,2-dimethyl-1,4-dihydropyrido[3,4-d]pyrimidin-6-yl)-4-hydroxypiperidin-1-yl)ethan-1-one]
5 | < 100 nM | COc1cc2c(cc1O[C@H]1CCOC1)/c(=N/[C@H](C)c1cccc(C(F)(F)F)c1C)nc(C)n2C [Compound 84, (Z)-7-methoxy-1,2-dimethyl-N—((R)-1-(2-methyl-3-(trifluoromethyl)phenyl)ethyl)-6-(((S)-tetrahydrofuran-3-yl)oxy)quinazolin-4(1H)-imine]
6 | < 100 nM | CC(=O)N1CCC(O)(c2cc3/c(=N/[C@H](C)c4cccc(C(F)(F)F)c4C)ncn(C)c3c(=O)n2C)CC1 [Compound 81, (R,Z)-6-(1-acetyl-4-hydroxypiperidin-4-yl)-1,7-dimethyl-4-((1-(2-methyl-3-(trifluoromethyl)phenyl)ethyl)imino)-1,7-dihydropyrido[3,4-d]pyrimidin-8(4H)-one]
7 | < 100 nM | CC(=O)N1CCN(c2cc3/c(=N/[C@H](C)c4cccc(C#N)c4C)nc(C)n(C)c3cn2)CC1 [Compound 56]
8 | < 100 nM | CC(=O)N1CCN(c2cnc3c(c2)/c(=N/[C@H](C)c2cccc(C(F)(F)F)c2C)nc(C)n3C)CC1 [Compound 53]
9 | < 100 nM | Cc1c([C@@H](C)/N=c2\nc(C)n(C(C)C)c3cnc(N4CCOCC4)cc23)cccc1C(F)(F)F [Compound 78]
10 | < 100 nM | Cc1c(C#N)cccc1[C@@H](C)/N=c1\nc(C)n(C)c2cnc(N3CCCCC3)cc12 [Compound 64]
11 | < 100 nM | Cc1c([C@@H](C)/N=c2\nc(C)n(C)c3cnc(N4CCO[C@H](C)C4)cc23)cccc1C(F)(F)F [Compound 52]
12 | < 100 nM | CC(=O)N1CC=C(c2cnc3c(c2)/c(=N/[C@H](C)c2cccc(C(F)(F)F)c2C)nc(C)n3C)CC1 [Compound 12]
13 | < 100 nM | CC(=O)N1CC=C(c2ccc3c(c2)/c(=N/[C@H](C)c2cccc(C(F)(F)F)c2C)nc(C)n3C)CC1 [Compound 37]
14 | < 100 nM | Cc1c([C@@H](C)/N=c2\nc(C)n(C)c3cnc(C4=CCOCC4)cc23)cccc1C(F)(F)F [Compound 39]
15 | < 100 nM | Cc1c(C#N)cccc1[C@@H](C)/N=c1\nc(C)n(C)c2cnc(C3=CCC(F)(F)CC3)cc12 [Compound 40]
16 | < 100 nM | CC(=O)N1CCC(O)(c2cc3/c(=N/[C@H](C)c4cccc(C(F)F)c4F)nc4n(c3cn2)CCC4)CC1 [Compound 28]
17 | < 100 nM | CC(=O)N1CC=C(c2cc3/c(=N/[C@H](C)c4cccc(C(F)(F)F)c4C)ncn(C)c3cn2)CC1 [Compound 16]

Row | IC50 | Compound
18 | < 100 nM | CC(=O)N1CCN(c2cc3/c(=N/[C@H](C)c4cccc(C(F)(F)F)c4C)nc(C)n(C)c3cn2)CC1 [Compound 49]
19 | < 100 nM | CC(=O)N1CC=C(c2cc3/c(=N/[C@H](C)c4cccc(C#N)c4C)nc4n(c3cn2)CCO4)CC1 [Compound 34]
20 | < 100 nM | COc1nc(C2(O)CC(C)(C)N(C(C)=O)C(C)(C)C2)cc2/c(=N/[C@H](C)c3cccc(C(F)(F)F)c3C)ncn(C)c12 [Compound 24, (R,Z)-1-(4-hydroxy-4-(8-methoxy-1-methyl-4-((1-(2-methyl-3-(trifluoromethyl)phenyl)ethyl)imino)-1,4-dihydropyrido[3,4-d]pyrimidin-6-yl)-2,2,6,6-tetramethylpiperidin-1-yl)ethan-1-one]
21 | < 100 nM | CC(=O)N1CC=C(c2cc3/c(=N/[C@H](C)c4cccc(C(F)(F)F)c4C)nc(C4CC4)n(C)c3cn2)CC1 [Compound 3]
22 | < 100 nM | C[C@@H](/N=c1\ncn(C)c2cnc(C3(C(F)F)CC3)cc12)c1cccc(C(F)F)c1F [Compound 20, (R,Z)—N-(1-(3-(difluoromethyl)-2-fluorophenyl)ethyl)-6-(1-(difluoromethyl)-cyclopropyl)-1-methylpyrido[3,4-d]pyrimidin-4(1H)-imine]
23 | < 100 nM | CC(=O)N1CCC(F)(c2cc3/c(=N/[C@H](C)c4cccc(C(F)F)c4F)nc4n(c3cn2)CCC4)CC1 [Compound 29]
24 | < 100 nM | CC(=O)N1CCC(F)(c2cc3/c(=N/[C@H](C)c4cccc(C#N)c4C)nc(C)n(C)c3cn2)CC1 [Compound 8]
25 | < 100 nM | Cc1c(C#N)cccc1[C@@H](C)/N=c1\nc(C)n(C)c2cnc(N3CCOC[C@H]3C)cc12 [Compound 74]
26 | < 100 nM | Cc1n/c(=N\[C@H](C)c2cccc(C(F)F)c2F)c2cc(C3=CCN(S(C)(=O)=O)CC3)ncc2n1C [Compound 97, (R,Z)—N-(1-(3-(difluoromethyl)-2-fluorophenyl)ethyl)-1,2-dimethyl-6-(1-(methylsulfonyl)-1,2,3,6-tetrahydropyridin-4-yl)pyrido[3,4-d]pyrimidin-4(1H)-imine]
27 | < 100 nM | CC(=O)N1CC=C(c2cc3/c(=N/[C@H](C)c4cccc(C(F)(F)F)c4C)nc4n(c3cn2)CCO4)CC1 [Compound 32, (R,Z)-1-(4-(5-((1-(2-methyl-3-(trifluoromethyl)phenyl)ethyl)imino)-8,9-dihydro-5H-oxazolo[3,2-a]pyrido[4,3-e]pyrimidin-3-yl)-3,6-dihydropyridin-1(2H)-yl)ethan-1-one]
28 | < 100 nM | CC(=O)N1CCC(F)(c2cc3/c(=N/[C@H](C)c4cccc(C(F)(F)F)c4C)nc4n(c3cn2)CCC4)CC1 [Compound 27, (R,Z)-1-(4-fluoro-4-(5-((1-(2-methyl-3-(trifluoromethyl)phenyl)ethyl)-imino)-5,7,8,9-tetrahydropyrido[4,3-e]pyrrolo[1,2-a]pyrimidin-3-yl)piperidin-1-yl)ethan-1-one]
29 | < 100 nM | Cc1c(C#N)cccc1[C@@H](C)/N=c1\nc(C)n(C)c2cnc(C3=CCOCC3)cc12 [Compound 41]
30 | < 100 nM | CC(=O)N1CC=C(c2cc3/c(=N/[C@H](C)c4cccc(C(F)(F)F)c4C)nc(C)n(C4CC4)c3cn2)CC1 [Compound 10]
31 | < 100 nM | CC(=O)N1CCN(c2cc3/c(=N/[C@H](C)c4cccc(C(F)(F)F)c4C)nc(C)n(C)c3cn2)C(=O)C1 [Compound 68]
32 | < 100 nM | Cc1c([C@@H](C)/N=c2\nc(C)n(C)c3cnc(C4(C(F)F)CC4)cc23)cccc1C(F)(F)F [Compound 18, (R,Z)-6-(1-(difluoromethyl)cyclopropyl)-1,2-dimethyl-N-(1-(2-methyl-3-(trifluoromethyl)phenyl)ethyl)pyrido[3,4-d]pyrimidin-4(1H)-imine]
33 | < 100 nM | Cc1c(C#N)cccc1[C@@H](C)/N=c1\nc(C)n(C)c2cnc(N3CC(C)(O)C3)cc12 [Compound 73]
